Results on 4 compounds are retold here after publication PMC3914206.

What all share (assay type): binding
What all share (parameters): KINOMEscan: ABL1(F317L)-phosphorylated / KINOMEscan: ABL1(H396P)-nonphosphorylated / KINOMEscan: ABL1(H396P)-phosphorylated / KINOMEscan: ABL1(M351T)-phosphorylated / KINOMEscan: ABL1(T315I)-phosphorylated / KINOMEscan: ABL1-nonphosphorylated / KINOMEscan: ABL1-phosphorylated / KINOMEscan: ACVR2A / KINOMEscan: ACVR2B / KINOMEscan: ADCK3 / KINOMEscan: ADCK4 / KINOMEscan: AKT1 / KINOMEscan: AKT3 / KINOMEscan: ALK / KINOMEscan: ARK5 / KINOMEscan: AURKA / KINOMEscan: AURKC / KINOMEscan: BIKE / KINOMEscan: BMPR1A / KINOMEscan: BMPR1B / KINOMEscan: BMX / KINOMEscan: BRK / KINOMEscan: BRSK1 / KINOMEscan: BRSK2 / KINOMEscan: CAMK1 / KINOMEscan: CAMK1D / KINOMEscan: CAMK1G / KINOMEscan: CAMK2A / KINOMEscan: CAMK2B / KINOMEscan: AAK1 / KINOMEscan: CAMK2D / KINOMEscan: CAMK2G / KINOMEscan: ABL1(F317I)-nonphosphorylated / KINOMEscan: ABL1(F317I)-phosphorylated / KINOMEscan: ABL1(F317L)-nonphosphorylated: unit: % Ctrl

Assay [1] has as its target T1, panel of 442 kinases (Homo sapiens, UniProt P21127).
T1 construct: purchased KINOMEscan
Conditions: Compound Concentration 10 µM. The text has this:
(§1) We assessed the selectivity of members of this scaffold using the KINOMEscan methodology across a near comprehensive panel of 442 kinases [[18,27]].

Assay [2] has as its target T2, panel of 442 kinases (Homo sapiens, UniProt Q13557).
T2 construct: purchased KINOMEscan
Conditions: Compound Concentration 10 µM.
Description: as §1

Assay [3] concerns the target T3, panel of 442 kinases (Homo sapiens, UniProt P36894).
T3 construct: purchased KINOMEscan
Conditions: Compound Concentration 10 µM.
Description: as §1

The target of assay [4] is T4, panel of 442 kinases (Homo sapiens, UniProt Q9UK32).
T4 construct: purchased KINOMEscan
T4 sequence (Q9UK32 whole entry): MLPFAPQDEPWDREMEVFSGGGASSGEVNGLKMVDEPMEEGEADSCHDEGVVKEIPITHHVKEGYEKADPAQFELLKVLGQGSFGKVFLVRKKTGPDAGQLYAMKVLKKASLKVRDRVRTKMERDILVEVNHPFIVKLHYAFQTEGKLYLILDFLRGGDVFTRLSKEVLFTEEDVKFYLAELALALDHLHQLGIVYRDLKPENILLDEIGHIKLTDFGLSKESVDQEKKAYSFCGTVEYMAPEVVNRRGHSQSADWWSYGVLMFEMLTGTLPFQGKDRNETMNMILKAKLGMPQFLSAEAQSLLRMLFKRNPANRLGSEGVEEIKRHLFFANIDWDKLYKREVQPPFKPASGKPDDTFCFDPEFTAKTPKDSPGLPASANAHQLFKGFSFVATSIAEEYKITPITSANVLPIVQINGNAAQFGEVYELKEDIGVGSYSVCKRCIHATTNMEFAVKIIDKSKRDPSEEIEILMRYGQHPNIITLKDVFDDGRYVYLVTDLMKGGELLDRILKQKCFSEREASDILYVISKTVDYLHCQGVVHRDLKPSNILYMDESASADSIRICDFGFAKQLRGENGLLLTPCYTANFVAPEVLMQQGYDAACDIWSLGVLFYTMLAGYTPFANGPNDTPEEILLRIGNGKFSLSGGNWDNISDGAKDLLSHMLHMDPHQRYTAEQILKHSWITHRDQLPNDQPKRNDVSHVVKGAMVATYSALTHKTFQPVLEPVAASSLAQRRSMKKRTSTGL
The settings on record: compound concentration 10 µM; for % Ctrl, RSK4(Kin.Dom.1-N-terminal): kinase RSK4(Kin.Dom.1-N-terminal); for % Ctrl, RSK4(Kin.Dom.2-C-terminal): kinase RSK4(Kin.Dom.2-C-terminal).
Description: as §1

T2 sequence (Q13557 whole entry): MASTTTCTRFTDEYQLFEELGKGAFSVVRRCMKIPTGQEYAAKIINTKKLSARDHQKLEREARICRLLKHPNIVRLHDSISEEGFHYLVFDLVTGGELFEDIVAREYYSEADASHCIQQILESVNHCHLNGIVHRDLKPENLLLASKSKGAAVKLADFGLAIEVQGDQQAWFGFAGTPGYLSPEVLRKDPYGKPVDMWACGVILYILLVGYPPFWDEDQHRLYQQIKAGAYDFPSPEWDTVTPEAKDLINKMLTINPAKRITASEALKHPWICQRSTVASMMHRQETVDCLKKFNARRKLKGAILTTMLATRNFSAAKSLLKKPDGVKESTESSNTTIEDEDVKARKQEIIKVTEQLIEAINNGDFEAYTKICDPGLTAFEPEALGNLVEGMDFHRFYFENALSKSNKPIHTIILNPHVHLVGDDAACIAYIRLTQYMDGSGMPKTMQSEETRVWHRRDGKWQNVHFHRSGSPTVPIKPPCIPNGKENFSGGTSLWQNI
T1 sequence (P21127 whole entry): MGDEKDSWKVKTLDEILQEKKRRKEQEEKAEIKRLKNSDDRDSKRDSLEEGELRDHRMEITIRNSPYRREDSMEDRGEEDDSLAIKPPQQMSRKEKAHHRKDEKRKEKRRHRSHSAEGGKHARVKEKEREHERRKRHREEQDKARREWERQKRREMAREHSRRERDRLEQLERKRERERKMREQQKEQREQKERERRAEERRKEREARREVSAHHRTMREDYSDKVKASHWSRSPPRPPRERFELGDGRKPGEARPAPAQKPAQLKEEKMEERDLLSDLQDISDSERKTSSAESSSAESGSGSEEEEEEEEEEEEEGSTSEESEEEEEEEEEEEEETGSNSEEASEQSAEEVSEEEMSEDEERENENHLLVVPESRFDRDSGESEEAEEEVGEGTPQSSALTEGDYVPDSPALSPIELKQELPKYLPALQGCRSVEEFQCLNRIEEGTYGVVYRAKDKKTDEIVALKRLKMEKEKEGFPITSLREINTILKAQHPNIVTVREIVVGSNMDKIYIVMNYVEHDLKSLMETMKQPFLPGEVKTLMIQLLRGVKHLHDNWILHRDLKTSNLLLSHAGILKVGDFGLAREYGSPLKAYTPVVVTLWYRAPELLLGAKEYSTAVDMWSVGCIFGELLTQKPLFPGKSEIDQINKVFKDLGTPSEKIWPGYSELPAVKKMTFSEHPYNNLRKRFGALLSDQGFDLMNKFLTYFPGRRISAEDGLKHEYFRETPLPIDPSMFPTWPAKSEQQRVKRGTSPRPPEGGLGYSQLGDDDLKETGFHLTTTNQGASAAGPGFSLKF
T3 sequence (P36894 24-532): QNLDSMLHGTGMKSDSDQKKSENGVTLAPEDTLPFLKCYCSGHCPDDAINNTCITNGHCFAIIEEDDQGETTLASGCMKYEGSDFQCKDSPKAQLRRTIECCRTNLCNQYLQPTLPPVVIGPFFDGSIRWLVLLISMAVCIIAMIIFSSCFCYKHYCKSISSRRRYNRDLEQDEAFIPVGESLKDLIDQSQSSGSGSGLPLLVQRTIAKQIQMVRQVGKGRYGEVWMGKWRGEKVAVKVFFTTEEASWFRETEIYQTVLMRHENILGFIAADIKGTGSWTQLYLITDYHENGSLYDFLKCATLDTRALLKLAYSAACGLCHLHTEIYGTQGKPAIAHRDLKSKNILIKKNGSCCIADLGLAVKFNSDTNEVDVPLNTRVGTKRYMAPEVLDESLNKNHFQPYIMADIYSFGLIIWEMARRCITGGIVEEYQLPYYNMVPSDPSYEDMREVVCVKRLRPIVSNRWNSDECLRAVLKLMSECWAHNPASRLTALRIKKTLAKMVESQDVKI

With `CCOc1cc(C(=O)N2CCC(N3CCN(C)CC3)CC2)ccc1Nc1ncc2c(n1)N(C1CCCC1)c1ccccc1C(=O)N2C` [Compound 26], in assay [1], the “KINOMEscan: CDC2L1” value turned out to be 100. The “KINOMEscan: CAMK2D” value in assay [2] turned out to be 96. Besides, the “KINOMEscan: BMPR1A” value in assay [3] was found to be 100. Besides, in assay [4], the “% Ctrl, RSK4(Kin.Dom.1-N-terminal)” value amounted to 100 % Ctrl and the “% Ctrl, RSK4(Kin.Dom.2-C-terminal)” value came out at 98 % Ctrl.
As for `COc1cc(C(=O)N2CCC(N3CCN(C)CC3)CC2)ccc1Nc1ncc2c(n1)N1CCc3cccc(c31)C(=O)N2C` [Compound 24], the “KINOMEscan: CAMK2D” value in assay [2] turned out to be 62. Also, the “KINOMEscan: BMPR1A” value in assay [3] is 67. In addition, in assay [4], the “% Ctrl, RSK4(Kin.Dom.1-N-terminal)” value came out at 100 % Ctrl and the “% Ctrl, RSK4(Kin.Dom.2-C-terminal)” value is reported as 5.2 % Ctrl.
Turning to `COc1cc(C(=O)N2CCC(N3CCN(C)CC3)CC2)ccc1Nc1ncc2c(n1)N(C)c1ccccc1C(=O)N2C` [15 (LRRK2-IN-1)], in assay [1], the “KINOMEscan: CDC2L1” value was 84. For the same compound, the “KINOMEscan: CAMK2D” value in assay [2] was 28. The “KINOMEscan: BMPR1A” value in assay [3] stood at 100. Further, in assay [4], the “% Ctrl, RSK4(Kin.Dom.1-N-terminal)” value was 92 % Ctrl and the “% Ctrl, RSK4(Kin.Dom.2-C-terminal)” value came to 2.2 % Ctrl.
For `COc1cc(C(=O)N2CCC(N3CCN(C)CC3)CC2)ccc1Nc1ncc2c(n1)N(C1CCCC1)c1ccccc1C(=O)N2C` [Compound 25, 11-cyclopentyl-2-((2-methoxy-4-(4-(4-methylpiperazin-1-yl)piperidine-1-carbonyl)phenyl)amino)-5-methyl-5H-benzo[e]pyrimido[5,4-b][1,4]diazepin-6(11H)-one], in that order: 81, 100, 96, 100 % Ctrl and 93 % Ctrl.
